Structures are written as SMILES.

The test concerns IL1-β release upon NLRP3 activation in peripheral blood mononuclear cells (PBMC). In words: PBMC IC50 Determination Assay. The following applies: Homo sapiens; PBMC from buffy coats, LPS 3 h, compound 30 min, then ATP (5 mM) or nigericin (10 μM) for 1 h; IL-1β in media by ELISA; read-out: PBMCs, IC50. It counts as cell-based. The procedure: PBMC IC50 Determination Assay
The compounds of the present disclosure were tested for their inhibitory activity against IL1-β release upon NLRP3 activation in peripheral blood mononuclear cells (PBMC).
Isolated cells were seeded into the wells of a 96-well plate and incubated for 3 h with lipopolysaccharide (LPS). Following medium exchange, the compounds of the present disclosure were added (a single compound per well) and the cells were incubated for 30 min. Next, the cells were stimulated either with ATP (5 mM) or nigericin (10 μM) for 1 h and the cell culture media from the wells were collected for further analysis.
The release of IL-1β into the media was determined by a quantitative detection of IL-1β in 5 the media using an IL-1β enzyme-linked immunosorbent assay (ELISA) Ready-SET-Go!, eBioscience cat. […] Subsequently, plates were blocked with blocking buffer for 1 h at room temperature (rt) and after washing with a buffer (PBS with 0.05% Tween-20) incubated with protein standard and culture media. […] Plates were washed and incubated with HRP-streptavidin for 30 min at rt and washed again. The signal was developed after addition of 3,39,S,59-tetramethylbenzidine-peroxidase (TMB) until color appeared and the reaction was stopped by 2 M H2SO4. A microplate spectrophotometer (BioTek) was used to detect signals with 450 nm. The detection range of IL-1β ELISA was […].
What is called IC50 is the point on the concentration scale where inhibition reaches its midpoint. Consider `O=C(Nc1c2c(cc3c1CCC3)CCC2)N[C@H](Cc1cccc(-c2cc[nH]n2)c1)C(=O)O` [Example 2V, (2R)-2-{[(1,2,3,5,6,7-hexahydro-s-indacen-4-yl)carbamoyl]amino}-3-[3-(1H-pyrazol-3-yl)phenyl]propanoic acid], for which the IC50 was 0.52 µM.

In the case of `COC(=O)C[C@@H](NC(=O)Nc1c2c(cc3c1CCC3)CCC2)C(=O)OC` [Example 2W, 1,4-dimethyl(2R)-2-{[(1,2,3,5,6,7-hexahydro-s-indacen-4-yl)carbamoyl]amino}butanedioate], the IC50 was 2.9 µM.

With `COC(=O)[C@@H](Cc1cncc(OC)c1)NC(=O)Nc1c2c(cc3c1CCC3)CCC2` [Example 2WW, Methyl (2R)-2-{[(1,2,3,5,6,7-hexahydro-s-indacen-4-yl)carbamoyl]amino}-3-(5-methoxypyridin-3-yl)propanoate], the IC50 came out at 0.45 µM.

Consider `CCOC(=O)CNC(=O)Nc1c2c(cc3c1CCC3)CCC2` [Example 2X, ethyl 2-{[(1,2,3,5,6,7-hexahydro-s-indacen-4-yl)carbamoyl]amino}acetate], for which the IC50 turned out to be 1.5 µM.

Take `CCOC(=O)C(Cc1nc(C)no1)NC(=O)Nc1c2c(cc3c1CCC3)CCC2` (centres unmarked) [Example 2XX, Ethyl 2-{[(1,2,3,5,6,7-hexahydro-s-indacen-4-yl)carbamoyl]amino}-3-(3-methyl-1,2,4-oxadiazol-5-yl)propanoate]: the IC50 amounted to 5.1 µM.

Consider `COC(=O)[C@@H](Cc1cccnn1)NC(=O)Nc1c2c(cc3c1CCC3)CCC2` [Example 2YY, Methyl (2R)-2-{[(1,2,3,5,6,7-hexahydro-s-indacen-4-yl)carbamoyl]amino}-3-(pyridazin-3-yl)propanoate], for which the IC50 stood at 3.3 µM.

With `COC(=O)[C@@H](Cc1ccc(O)cc1)NC(=O)Nc1c2c(cc3c1CCC3)CCC2` [Example 2Z, methyl(2R)-2-{[(1,2,3,5,6,7-hexahydro-s-indacen-4-yl)carbamoyl]amino}-3-(4-hydroxyphenyl)propanoate], the IC50 came to 0.1 µM.

With `CCOC(=O)C(Cc1cnoc1)NC(=O)Nc1c2c(cc3c1CCC3)CCC2` (centres unmarked) [Example 2ZZ, Ethyl 2-{[(1,2,3,5,6,7-hexahydro-s-indacen-4-yl)carbamoyl]amino}-3-(1,2-oxazol-4-yl)propanoate], the IC50 was 3.3 µM.

Source of the values: patent US11345669B2, “Urea derivatives and methods of use thereof” (NodThera Limited, priority 2017, dated 2022).
